The text below walks through data of patent US20230348376A1 (TEIJIN PHARMA LIMITED, priority 2020, published 2023).

Some results are limits rather than exact numbers.

Experiment [1] concerns rat oligodendrocyte progenitor cells. Description: Promotive activity of rat oligodendrocyte progenitor cell differentiation-1 (MBP gene expression, mRNA). Conditions: Rattus norvegicus, Oligodendrocyte progenitor cell, 96 h, read-out: promotive activity at T3 base (MBP gene expression; DMSO 0%, T3 100%), 4 days, MBP/β actin mRNA. The class given is cell-based. The protocol: Regarding vitamin D derivatives, which was confirmed to act on the vitamin D receptor (VDR) in Example 352, the promotive activity of oligodendrocyte progenitor cell (OPC) differentiation was evaluated by MBP gene expression (mRNA).
A forebrain obtained from SD rat (Charles River Japan, 1 day old) was crushed with 70 μm Cell Strainer (Falcon #352350), and a cell suspension was prepared by collecting the cells in oligodendrocyte progenitor cell separation medium (20% FBS/2 mM Glutamax (Gibco #35050-061)/i mM sodium pyruvate (Gibco #11360-070)/1% penicillin-streptomycin (Invitrogen #15140-122)/DMEM (Gibco #11960-044)). The cell suspension was seeded in a poly-D-lysine coated T75 flask (Thermo Fisher Scientific #132704) and cultured for about 2 weeks. After culturing, the flask was shaken using a rotary shaker ([…] #WB-101SRC) for about 1 hour (37° C., 100 rpm), and the supernatant was discarded to remove microglia. Subsequently, oligodendrocyte progenitor cell separation medium was added to the flask, and the mixture was similarly shaken for about 22 hours (37° C., 200 rpm), and the supernatant was collected to prepare oligodendrocyte progenitor cells.
The oligodendrocyte progenitor cell prepared was suspended in a differentiation medium (2% B27 (Thermo Fisher Scientific, Inc. #17504-044)/1% penicillin-streptomycin (Invitrogen Corporation #15140-122)/10 ng/mL CNTF (PeproTech Inc. #AF-450-13)/DMEM (Gibco #11960-044)), and seeded on a 96-well plate coated with poly-L-ornithine (FUJIFILM Wako Pure Chemical Corporation #163-27421) under the condition of 0.65×10^4 cells/well, and on a 384-well plate under the condition of 2×10^3 cells/well using an automatic dispensing system (LABCYTE #Echo555). […] After culturing, the cells seeded on the 96-well plate were subjected to immunostaining against MBP using following methods: fixation (4% paraformaldehyde solution, 30 minutes, room temperature), PBS washing, membrane permeation treatment (0.1% Trion X-100 (SIGMA #X100-100ML)/PBS, 3 minutes, room temperature), blocking (3% BSA (SIGMA #A9647-10G)/PBS, 1 hour, room temperature), primary antibody reaction (MBP antibody (abcam plc #ab40390), 2.5 μg/mL, 4° C., 24 hours), PBS washing, secondary antibody reaction (Alexa488 anti-rabbit IgG (Thermo Fisher Scientific, Inc. #A-11034), 5 μg/mL, room temperature, 1 hour), PBS washing, and nuclear staining (Hoechst33342 (DOJINDO #NU043), 10 μg/mL, room temperature, 5 minutes). Subsequently, images of each well were acquired using a fluorescence microscope (KEYENCE CORPORATION #BZ-X800), the number of MBP-positive cells and Hoechst 33342-positive cells were measured using an image analysis application (KEYENCE CORPORATION #BZ-X800 Analyzer), and then the ratio (the number of MBP-positive cells/the number of Hoechst33342-positive cells) was calculated. The cells seeded on the 384-well plate were subjected to real-time PCR using Cells-to-CT 1-Step TaqMan Kit (Thermo Fisher Scientific, Inc. #A25602) and QuantStudio 12K Flex Real-Time PCR System (Thermo Fisher Scientific, Inc. #4472380). The experiment was performed in accordance with the protocol attached to the kit. MBP (Thermo Fisher Scientific, Inc. #Assay ID Rn00690616_ml) and β actin (Thermo Fisher Scientific, Inc. #Assay ID Rn00667869_ml) were used as primers, and the expression levels of each were measured and the ratio (MBP/β actin) was calculated.

Experiment [2] deals with T1, human VDR (Homo sapiens, UniProt P11473).
T1 sequence (P11473 1-427): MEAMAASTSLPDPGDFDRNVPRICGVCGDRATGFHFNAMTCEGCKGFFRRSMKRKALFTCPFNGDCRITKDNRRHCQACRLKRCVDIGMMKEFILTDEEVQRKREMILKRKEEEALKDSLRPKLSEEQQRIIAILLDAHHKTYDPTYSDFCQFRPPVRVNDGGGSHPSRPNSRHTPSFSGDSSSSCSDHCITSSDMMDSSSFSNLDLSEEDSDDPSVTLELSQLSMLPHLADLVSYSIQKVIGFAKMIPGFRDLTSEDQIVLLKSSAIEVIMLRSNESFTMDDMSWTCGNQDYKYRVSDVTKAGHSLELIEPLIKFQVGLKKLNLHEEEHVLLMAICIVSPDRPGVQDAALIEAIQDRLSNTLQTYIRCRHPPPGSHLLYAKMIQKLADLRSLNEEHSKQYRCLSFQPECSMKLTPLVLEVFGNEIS
T1 sequence (P19793 1-462 partner): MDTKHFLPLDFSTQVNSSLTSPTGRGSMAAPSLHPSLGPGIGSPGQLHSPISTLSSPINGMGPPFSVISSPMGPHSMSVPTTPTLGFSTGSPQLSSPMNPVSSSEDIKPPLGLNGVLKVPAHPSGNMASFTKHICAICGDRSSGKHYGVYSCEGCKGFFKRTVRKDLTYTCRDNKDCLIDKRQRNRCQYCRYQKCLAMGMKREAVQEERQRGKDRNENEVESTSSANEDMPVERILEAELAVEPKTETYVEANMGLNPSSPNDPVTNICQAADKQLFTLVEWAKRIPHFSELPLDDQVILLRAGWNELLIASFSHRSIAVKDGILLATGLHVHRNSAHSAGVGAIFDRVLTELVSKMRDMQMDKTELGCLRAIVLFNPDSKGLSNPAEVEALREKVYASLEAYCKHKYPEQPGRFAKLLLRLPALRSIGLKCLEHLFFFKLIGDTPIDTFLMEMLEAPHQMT
Description: Evaluation of VDR transcription activity in human osteoblasts (HOS cells), luciferase reporter. The conditions noted are these: Activity (EC50, VDR transcription activity), HOS cells transfected with human VDR, human RXRα and DR3 luciferase reporter; 21 hours. For orientation: Reporter assays use an easily measured gene product as a stand-in for the process of interest.

What is called EC50 is the midpoint of the concentration-response curve. High values mean a need for much substance, low ones an effect from little substance.

As for `C=C1/C(=C\C=C2/CCC[C@]3(C)[C@@H]([C@H](C)CN4CCC[C@H](C(C)(F)F)C4)CC[C@@H]23)C[C@@H](O)[C@H](C)[C@@H]1O` [Compound C054, (1R,2S,3S,Z)-5-(2-((1R,3aS,7aR,E)-1-((S)-1-((S)-3-(1,1-difluoroethyl)piperidin-1-yl)propan-2-yl)-7a-methyloctahydro-4H-inden-4-ylidene)ethylidene)-2-methyl-4-methylenecyclohexane-1,3-diol], the activation at 1 µM in experiment [1] is at least 20%. Moreover, the EC50 in experiment [2] lay in the range of 10 to 100 nM.

In the case of `C=C1/C(=C\C=C2/CCC[C@]3(C)[C@@H]([C@H](C)CN4CC[C@@H](OC(F)F)C4)CC[C@@H]23)C[C@@H](O)C[C@@H]1O` [Compound B048, (1R,3S,Z)-5-(2-((1R,3aS,7aR,E)-1-((S)-1-((R)-3-(difluoromethoxy)pyrrolidin-1-yl)propan-2-yl)-7a-methyloctahydro-4H-inden-4-ylidene)ethylidene)-4-methylenecyclohexane-1,3-diol], the activation at 1 µM in experiment [1] is at least 20%. In experiment [2], the EC50 fell in the range of 10 to 100 nM. On the same counts, the results for `C[C@H](CCN1CC[C@H](CC(F)F)C1)[C@H]1CC[C@H]2/C(=C/C=C3C[C@@H](O)C[C@H](O)C3)CCC[C@]12C` [Compound B082, (1R,3R)-5-(2-((1R,3aS,7aR,E)-1-((R)-4-((R)-3-(2,2-difluoroethyl)pyrrolidin-1-yl)butan-2-yl)-7a-methyloctahydro-4H-inden-4-ylidene)ethylidene)cyclohexane-1,3-diol] are at least 20% and 10 to 100 nM. On the same counts, the results for `C=C1[C@H](O)CC(=C/C=C2\CCC[C@]3(C)[C@@H]([C@H](C)CN4CCO[C@H](C(F)F)C4)CC[C@@H]23)C[C@H]1O` [Compound D007, (1R,3R)-5-(2-((1R,3aS,7aR,E)-1-((S)-1-((S)-2-(difluoromethyl)morpholino)propan-2-yl)-7a-methyloctahydro-4H-inden-4-ylidene)ethylidene)-2-methylenecyclohexane-1,3-diol] are at least 20% and 1 to 10 nM.

As to `C=C1/C(=C\C=C2/CCC[C@]3(C)[C@@H]([C@H](C)CN4CC[C@H](CCC(F)F)C4)CC[C@@H]23)C[C@@H](O)C[C@@H]1O` [Compound B059, (1R,3S,Z)-5-(2-((1R,3aS,7aR,E)-1-((S)-1-((S)-3-(3,3-difluoropropyl)pyrrolidin-1-yl)propan-2-yl)-7a-methyloctahydro-4H-inden-4-ylidene)ethylidene)-4-methylenecyclohexane-1,3-diol], the activation at 1 µM in experiment [1] is at least 20%. The compound also displayed an EC50 in experiment [2] of 100 to 1000 nM. On the same counts, the results for `C=C1[C@H](O)CC(=C/C=C2\CCC[C@]3(C)[C@@H]([C@H](C)CCN4CCOC(C)(C)C4)CC[C@@H]23)C[C@H]1O` [Compound D029, (1R,3R)-5-(2-((1R,3aS,7aR,E)-1-((R)-4-(2,2-dimethylmorpholino)butan-2-yl)-7a-methyloctahydro-4H-inden-4-ylidene)ethylidene)-2-methylenecyclohexane-1,3-diol] are at least 20% and 1 to 10 nM. The matching figures for `C=C1[C@H](O)CC(=C/C=C2\CCC[C@]3(C)[C@@H]([C@H](C)CCN4CCOC[C@@H]4C)CC[C@@H]23)C[C@H]1O` [Compound D032, (1R,3R)-5-(2-((1R,3aS,7aR,E)-7a-methyl-1-((R)-4-((S)-3-methylmorpholino)butan-2-yl)octahydro-4H-inden-4-ylidene)ethylidene)-2-methylenecyclohexane-1,3-diol]: at least 20% and 10 to 100 nM. Take `C=C1[C@H](O)CC(=C/C=C2\CCC[C@]3(C)[C@@H]([C@H](C)CN4CCO[C@@H](C(F)F)C4)CC[C@@H]23)C[C@H]1O` [Compound D008, (1R,3R)-5-(2-((1R,3aS,7aR,E)-1-((S)-1-((R)-2-(difluoromethyl)morpholino)propan-2-yl)-7a-methyloctahydro-4H-inden-4-ylidene)ethylidene)-2-methylenecyclohexane-1,3-diol]: in experiment [1], the activation at 1 µM is at least 20%. In experiment [2], this compound displayed an EC50 of 1 to 10 nM.

As to `C=C1/C(=C\C=C2/CCC[C@]3(C)[C@@H]([C@H](C)CCN4CCO[C@H](C)C4)CC[C@@H]23)C[C@@H](O)CC1O` (stereo in doubt) [Compound D047, (1R,3R,Z)-5-(2-((1R,3aS,7aR,E)-7a-methyl-1-((R)-4-((R)-2-methylmorpholino)butan-2-yl)octahydro-4H-inden-4-ylidene)ethylidene)-4-methylenecyclohexane-1,3-diol], in experiment [1], the activation at 1 µM was at least 20%. On the same count and under the same terms, the value for `C=C1/C(=C\C=C2/CCC[C@]3(C)[C@@H]([C@H](C)CCN4CCO[C@@H](C(F)F)C4)CC[C@@H]23)C[C@@H](O)C[C@@H]1O` [Compound D037, (1R,3 S,Z)-5-(2-((1R,3aS,7aR,E)-1-((R)-4-((R)-2-(difluoromethyl)morpholino)butan-2-yl)-7a-methyloctahydro-4H-inden-4-ylidene)ethylidene)-4-methylenecyclohexane-1,3-diol] was at least 20%; that for `C=C1/C(=C\C=C2/CCC[C@]3(C)[C@@H]([C@H](C)CCN4CCO[C@@H](C)C4)CC[C@@H]23)C[C@@H](O)CC1O` (stereo in doubt) [Compound D048, (1R,3R,Z)-5-(2-((1R,3aS,7aR,E)-7a-methyl-1-((R)-4-((S)-2-methylmorpholino)butan-2-yl)octahydro-4H-inden-4-ylidene)ethylidene)-4-methylenecyclohexane-1,3-diol] was at least 20%; that for `C=C1[C@H](O)CC(=C/C=C2\CCC[C@]3(C)[C@@H]([C@H](C)CCN4C[C@@H](C)OC[C@@H]4C)CC[C@@H]23)C[C@H]1O` [Compound D038, (1R,3R)-5-(2-((1R,3aS,7aR,E)-1-((R)-4-((2R,5S)-2,5-dimethylmorpholino)butan-2-yl)-7a-methyloctahydro-4H-inden-4-ylidene)ethylidene)-2-methylenecyclohexane-1,3-diol] was at least 20%.
